The target in one assay is DDX3X (Homo sapiens, UniProt O00571). Nature of the assay: Helicase assay (unwinding of 18/36mer dsRNA). Also noted: host or cells: 293T cells (transient transfection, anti-HA immunoprecipitation, protein kept on beads). The note with it: 50, 250 and 500 µM, in presence of ATP. Type of assay: biochemical. The procedure:
The DDX3X protein was obtained by immunoprecipitation from 293T cells (3x10^5) were seeded in 6-well plates and, after 24h, transfected with 1 µg of HA-DDX3 (Addgene plasmid # 44975) by using the Lipofectamine reagent (Thermo Fischer Scientific). After 36 h, cells were lysed in NP-40 Lysis Buffer (20 mM HEPES pH=7.5, 10 mM EGTA pH=8, 40 mM β-glycerolphosphate, 1% NP40, 2.5 mM MgCl2, 2 mM Orthovanadate, 2 mM NaF, 1 mM DTT, and 1X protease inhibitors mixture) and 2 mg of proteins were immunoprecipitated with anti-HA antibodies (Covance) in NP40 lysis buffer. Immunoprecipitated samples were washed twice with lysis buffer and one time in helicase reaction buffer (50 mM Tris HCl pH=8, 1 mM DTT, 5% glycerol, 10 mM MgCl2). Beads were then resuspended in 100 µl in helicase reaction buffer. […]
Ultimately, reactions were performed in a final volume 100 µl of helicase reaction buffer plus ATP 4 mM, 30 µl of beads used to immunoprecipitate HA-DDX3X, 20 nM of 18/36mer dsRNA and 100 nM of competitor at 37°C for 1 hour and stopped by adding 10 µl of a stopping solution (EDTA 60 mM pH=8, 40% glycerol, 0.6% SDS, 1% Orange G). […] Quantification of the ssRNA was performed by the ImageJ software (version 1.53, NIH). […]

Another assay concerns A549 Red-FLuc. Put plainly: Cytotoxicity, cell count method. Type of assay: cell-based. The note with it: Homo sapiens, 72 hours of incubation. The procedure:
The anti-tumor activity of the compounds of the present invention was evaluated as the effect on the proliferation and survival of tumor cells by counting the number of living cells in presence or absence of the compounds ("cell count method"), and as the effect on the viability and metabolic activity of the cells, by using particular substrates that are converted by cellular enzymes into coloured or luminescent products, proportionally with metabolic activity and state of the cell, such as the MTS tetrazolium compound ("MTS method") or luciferin ("ATP-based method") respectively.
Cells were seeded at 3 to 5 x 10^4 cells/well density depending on cell lines and maintained at 37°C in 5% CO2. After 24 hours cells were treated with ascending concentrations of the investigational compounds and the reference (5-fluoro-Uracyl) in a range from 0 to 100 µM. Compounds were dissolved in DMSO which final concentration in each well was 0.5% v:v. After 72 h of incubation with compounds, the cells were detached with trypsin and re-suspended in 1 ml of complete medium; the cell number was evaluated using a Z2 Coulter Counter ("cell count method") (Attallah and Johnson, A simple highly sensitive methods for the determination of cell viability using an electronic particle analyzer, Coulter counter J. Immunol. Methods. 1981, 41, 155; Leonardi et al., Activated kinase screening identifies the IKBKE oncogene as a positive regulator of autophagy. Autophagy, 2019, 15, 312). Alternatively, after the 72 hours of incubation with compounds, the MTS solution (CellTiter 96® AQueous One Solution Cell Proliferation Assay) is added to each well and absorbance at 490 nm wavelength is read after 2 hours of incubation ("MTS method"). Results in Tables 8-13, 17, 18 were obtained with the cell count method. Results in Tables 14-15 were obtained with the MTS method. Results in Table 16 were obtained with ATP-based method.

Sequence of DDX3X (O00571 whole entry): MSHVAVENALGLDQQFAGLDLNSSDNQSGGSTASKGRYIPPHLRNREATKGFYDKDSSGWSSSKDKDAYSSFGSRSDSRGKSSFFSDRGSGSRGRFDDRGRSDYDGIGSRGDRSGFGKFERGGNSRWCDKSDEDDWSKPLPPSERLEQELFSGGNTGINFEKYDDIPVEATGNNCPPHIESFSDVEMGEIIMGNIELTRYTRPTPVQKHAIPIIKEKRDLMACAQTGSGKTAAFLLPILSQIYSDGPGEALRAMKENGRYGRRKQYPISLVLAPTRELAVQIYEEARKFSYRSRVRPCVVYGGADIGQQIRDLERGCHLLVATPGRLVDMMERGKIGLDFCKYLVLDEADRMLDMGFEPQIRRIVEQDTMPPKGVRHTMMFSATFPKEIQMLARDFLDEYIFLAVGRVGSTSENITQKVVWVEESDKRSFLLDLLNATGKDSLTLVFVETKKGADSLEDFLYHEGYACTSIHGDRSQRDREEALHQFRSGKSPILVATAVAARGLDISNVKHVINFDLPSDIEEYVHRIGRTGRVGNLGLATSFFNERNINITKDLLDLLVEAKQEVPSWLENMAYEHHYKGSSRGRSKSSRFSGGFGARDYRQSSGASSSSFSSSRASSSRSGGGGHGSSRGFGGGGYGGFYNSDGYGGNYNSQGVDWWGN

For `CCCCc1cn(-c2ccc(-c3nnc(-c4cccc(C(=O)O)c4)o3)cc2)nn1` [Compound 16, 3-(5-(4-(4-butyl-1H-1,2,3-triazol-1-yl)phenyl)-1,3,4-oxadiazol-2-yl)benzoic acid], the “inhibitory effect on DDX3X helicase activity” value at DDX3X was “inhibitory effect on DDX3X helicase activity”. For the same molecule, in the assay on A549 Red-FLuc, half-maximal inhibition (IC50) was put at 18.1 µM.

The values above are taken from patent EP4050002A1, “ANTI-PROLIFERATIVE AGENTS” (First Health Pharmaceuticals B.V., priority 2021, dated 2022).
